Measurements taken from patent US20220170028A1, “NOVEL INTERLEUKIN-2 VARIANTS AND BIFUNCTIONAL FUSION MOLECULES THEREOF” (Cugene Inc, priority 2019, published 2022).
Entries after “also recorded” stand apart in the source; their conditions may differ.

How the values were obtained:
Format in all cases: cell-based
[1] = system: STAT5 phosphorylation in CD4+ Treg cells; experiment: STAT5 phosphorylation in CD4+ Treg cells, human PBMC assay by FACS
Source text: (§1) Single amino acid substitutions were introduced to IL-2 at positions corresponding to amino acids interacting with receptor subunit(s) β or γ or βγ. These substitutions were aimed to reduce IL-2 signaling capacity through the intermediate affinity IL-2Rβγ complex and confer signaling specificity from the high affinity IL-2Rαβγ. IL-2 variants containing single amino acid substitutions were examined for their ability to differentially stimulate STAT5 phosphorylation in CD4 positive Treg and Tconv cells. STAT5 is known to be involved in the downstream signaling cascade upon IL-2 binding to the transmembrane IL-2 receptors. The phosphorylation of STAT5 in defined lymphocyte subpopulations was measured using fresh human peripheral blood mononuclear cells (PBMC) and the forkhead transcription factor FOXP3 was used to identify the Treg population in FACS analysis.
(§2) Briefly, human PBMC were isolated by Ficoll-Hypaque centrifugation from the buffy coat of a healthy donor. PBMC were starved in serum-free MACS buffer at 4° C. for 1 hour. 2×10^5 PBMC were then treated with serial dilutions of test compounds for 30 min at 37° C. Cells were fixed and permeabilized with Foxp3/Transcription Factor Staining Buffer Set (EBIO) by incubating with 1× Foxp3 fixation/permeabilization working solution for 30 minutes and washing with 1× permeabilization buffer. Cells were additionally fixed with Cytofix buffer and permeabilized with Perm Buffer III (BD Biosciences) and then washed. After blocking Fc receptors by adding human TruStain FcX (1:50 dilution), cells were stained with a mixture of anti-CD25-PE, anti-FOXP3-APC, anti-pSTAT5-FITC, and anti-CD4-PerCP-Cy5.5 antibodies at concentrations recommended by the manufacturer for 45 minutes at room temperature. Cells were collected by centrifugation, washed, resuspended in FACS buffer, and analyzed by flow cytometry. The flow cytometry data was gated into CD4+/Foxp3+/CD25^high and CD4+/Foxp3−/CD25^low groups for the Treg and CD4 conventional T cell subsets, respectively. Data are expressed as a percent of pStat5 positive cells in gated population.

[2] = system: STAT5 phosphorylation in CD4+ Tconv cells; experiment: STAT5 phosphorylation in CD4+ Tconv cells, human PBMC assay by FACS
Source text: as §1, §2

[3] = system: CD4+ Treg vs CD4+ Tconv cells; experiment: STAT5 phosphorylation, selectivity / activity profile Treg versus CD4+ Tconv cells, human PBMC
Source text: as §1, §2
The S125I substitution was then introduced into wild-type IL-2 or IL-2 variants that already harbored 1 or 2 mutations targeting receptor subunit(s) β or γ or βγ. The resulting IL-2 variants containing isoleucine at position 125 were tested for their ability to stimulate STAT5 phosphorylation in Treg and Tconv cells in comparison with their respective serine counterparts at position 125. Table 7 lists the potency and selectivity of IL-2 variants in Treg cells. The two molecules in the same row of Table 7 share the same other amino acid substitution(s) and differ only at position 125 with either serine or isoleucine.

| Substance | STAT5 phosphorylation activity in Treg cells (in words) [1] | STAT5 phosphorylation activity in CD4+ Tconv cells (in words) [2] | activity profile / selectivity window Treg over CD4+ Tconv (in words) [3] | further results |
| --- | --- | --- | --- | --- |
| P-0863: Fc fusion, 7 amino acid N-terminal deletion of P-0511 IL-2 variant (Table 4H prints L19D), SEQ ID NO: 303 | fully retained potency |  |  |  |
| P-0536: Tocilizumab IL-2 L19H/S125I/Q126E bivalent fusion, SEQ ID NOs 253 + 255 | slightly higher activity than its monomeric equivalent P-0546 |  |  |  |
| P-0464: IL-2 L19Y/Q126K Fc fusion, SEQ ID NO: 176 | retained comparable potency | varied significantly |  |  |
| P-0448: IL-2 L19Q/Q126E Fc fusion, SEQ ID NO: 174 | significant potency | largely abolished | on par with Benchmark-2 |  |
| P-0322: IL-2 D20T/Q126E Fc fusion, SEQ ID NO: 99 | pronounced reduced potency |  |  |  |
| P-0423: IL-2 L19Q Fc fusion, SEQ ID NO: 152 |  | largely retained the biological activity |  |  |
| P-0862: Fc fusion, 5 amino acid N-terminal deletion of P-0511 IL-2 variant (Table 4H prints L19D), SEQ ID NO: 302 | fully retained potency |  |  |  |
| P-0417: IL-2 L19N/Q126E Fc fusion, SEQ ID NO: 103 | pronounced reduced potency |  |  |  |
| P-0590: Tocilizumab IL-2 L19N/S125I/Q126E bivalent fusion, SEQ ID NOs 253 + 267 | reduced potency |  |  | maximum possible effect / signaling amplitude of STAT5 phosphorylation in Treg cells [1]: lower signaling amplitude |
| P-0698: Tocilizumab IL-2 L19H/S125I/Q126R bivalent fusion, SEQ ID NOs 253 + 311 |  |  | did not impair the protein activity nor improve the Treg selectivity |  |
| P-0449: IL-2 L19S/Q126E Fc fusion, SEQ ID NO: 175 | significant potency | largely abolished | on par with Benchmark-2 |  |
| P-0365: IL-2 D20N Fc fusion, SEQ ID NO: 76 | ability to induce STAT5 phosphorylation | largely diminished or abolished |  |  |
| P-0859: IL-2 L19N/S125I/Q126E Fc fusion, SEQ ID NO: 306 | different levels of potency attenuation |  |  | maximum possible effect / signaling amplitude of STAT5 phosphorylation in Treg cells [1]: moderately reduced |
| P-0699: Tocilizumab IL-2 L19H/S125I/Q126S bivalent fusion, SEQ ID NOs 253 + 312 |  |  | did not impair the protein activity nor improve the Treg selectivity |  |
| P-0700: Tocilizumab IL-2 L19H/S125I/Q126T bivalent fusion, SEQ ID NOs 253 + 307 |  |  | did not impair the protein activity nor improve the Treg selectivity |  |
| P-0303: IL-2 Q126E Fc fusion, SEQ ID NO: 90 | minimally impacted the pSTAT5 activation potency |  | modestly improved selective window |  |

| Substance | STAT5 phosphorylation activity in Treg cells (in words) [1] | STAT5 phosphorylation activity in CD4+ Tconv cells (in words) [2] | activity profile / selectivity window Treg over CD4+ Tconv (in words) [3] | further results |
| --- | --- | --- | --- | --- |
| P-0368: IL-2 D20Y Fc fusion, SEQ ID NO: 79 | no biological activity | no biological activity |  |  |
| P-0474: IL-2 L19Y/Q22K Fc fusion, SEQ ID NO: 186 | retained comparable potency | varied significantly |  |  |
| P-0480: IL-2 L19H/Q126K Fc fusion, SEQ ID NO: 189 |  |  |  | Treg Selectivity ([3]; Serine-125 constructs): Yes |
| P-0373: IL-2 L19N Fc fusion, SEQ ID NO: 82 |  | reduced | wide window for selective targeting of Treg subset; also recorded: some or significant biased selective window |  |
| P-0695: Tocilizumab IL-2 L19H/S125I/Q126H bivalent fusion, SEQ ID NOs 253 + 309 |  |  | did not impair the protein activity nor improve the Treg selectivity |  |
| P-0367: IL-2 D20S Fc fusion, SEQ ID NO: 78 | ability to induce STAT5 phosphorylation | largely diminished or abolished |  |  |
| P-0374: IL-2 L19R Fc fusion, SEQ ID NO: 83 |  | largely retained the biological activity |  |  |
| P-0694: Tocilizumab IL-2 L19H/S125I/Q126D bivalent fusion, SEQ ID NOs 253 + 308 | reduced potency | essentially abolished | wide selectivity window |  |
| P-0697: Tocilizumab IL-2 L19H/S125I/Q126N bivalent fusion, SEQ ID NOs 253 + 310 |  |  | did not impair the protein activity nor improve the Treg selectivity |  |
| P-0559: Tocilizumab IL-2 D20Q/S125I bivalent fusion, SEQ ID NOs 253 + 265 | reduced potency | essentially abolished | selective activation of Treg cells over CD4+ Tconv cells |  |
| P-0588: Tocilizumab IL-2 D20S/S125I bivalent fusion, SEQ ID NOs 253 + 257 | reduced potency |  |  |  |
| P-0427: IL-2 L19S Fc fusion, SEQ ID NO: 156 |  | largely retained the biological activity |  |  |
| P-0860: IL-2 L19D/S125I/Q126E Fc fusion, SEQ ID NO: 300 | different levels of potency attenuation |  |  | maximum possible effect / signaling amplitude of STAT5 phosphorylation in Treg cells [1]: strikingly lower |
| P-0366: IL-2 D20Q Fc fusion, SEQ ID NO: 77 | ability to induce STAT5 phosphorylation | largely diminished or abolished |  |  |
| P-0589: Tocilizumab IL-2 D20N/S125I bivalent fusion, SEQ ID NOs 253 + 258 | reduced potency |  |  |  |
